Results from US20240307497A1, “ADIPONECTIN ALONE OR IN COMBINATION WITH EXTRACORPOREAL PHOTOPHERESIS (ECP) FOR IMMUNE RELATED ADVERSE EVENTS OF IMMUNE CHECKPOINT INHIBITORS” (Mallinckrodt Pharmaceuticals Ireland Limited, priority 2022, published 2024).

Assays:
[1] = system: B16.F10 melanoma with DSS/anti-PD1-mediated colitis; test: Combined colitis and B16.F10 tumor model; type: in vivo, C57BL/6 mice
Experimental: C57BL/6 mice were intravenously injected with 10 000 B16.F10luc/GFP melanoma cells in the tail vein and received 3% Dextran Sodium Sulfate (DSS colitis grade, 36-50 kDa; MP Biomedicals) in drinking water from day 9-12, followed by normal drinking water. Mice were treated with 0.2 mg ICI or the respective isotype control on days 1, 4, 8, 16 and 22. ECP-treated splenocytes were transplanted (107; i.v.) on days 13, 18 and 22, daily steroid was given (i.p.) from days 13-22. Mice were imaged with BLI on day 23, organs and serum were harvested on day 24.
Luciferin (D-luciferin, potassium salt (S)-4,5-Dihydro-2-(6-hydroxy-2-benzothiazolyl)-4-thiazolecarboxylic acid potassium salt; Biosynth) was dissolved in H2O and injected i.p. at a concentration of 150 μg/g body weight. After 10 minutes, the mice were imaged using an IVIS Lumina III in vivo imaging system (PerkinElmer) with an exposure time of 2 minutes. The luciferase signal was quantified in photons per second per mouse. Acquisition, analysis, and visualization of BLI were performed using Living Image Software (PerkinElmer).

B16.F10 melanoma [2] = test: Recall immunity experiment; type: in vivo, mice; settings: T-cells of treated donors into secondary B16.F10 recipients
Source text: For evaluation of recall immunity, T-cell donor mice were challenged with 104 B16.F10 melanoma cells (i.v.) and treated with anti-PD1 (days 1, 3, 6, 9, 12), ECP (days 3, 7, 12) or steroids (days 3-12). Secondary recipients were sub-lethally irradiated with 6 Gy TBI and injected i.v. with 104 B16.F10 or 2×10^6 4434 melanoma cells. Splenic T-cells were enriched from T-cell donors on day 13 using the Pan T-cell Isolation Kit II (mouse, Miltenyi) and 1×105 T-cells were transplanted i.v. into secondary recipients on day 3 following tumor injection. Untreated melanoma mice served as control.

[3] = system: s.c. B16.F10-OVA melanoma and MC38-OVA^dim colorectal tumors; test: OVA-transgenic subcutaneous tumor models; type: in vivo, mice; settings: OT-I and CD8^+OVA-Dextramer^+ T-cells, d16
Experimental: C57BL/6 recipients were transplanted subcutaneously with 1×106 MC38-OVAdim or 0.5×10^6 MC38 cells into the shorn right flank. Recipients were treated i.p. with 0.2 mg ICI on days 1, 4, 8, 11, 15. ECP-treated splenocytes were transplanted (107; i.v.) on days 6, 11 and 15, daily steroids were given (i.p.) from days 6-15. On day 16, serum samples were harvested by retroorbital bleeding, the mice were euthanized and tumors were resected for further studies.
CD45.1 recipients were transplanted subcutaneously with 1×106 B16.F10-OVA cells into the shorn right flank and treated i.p. with 0.2 mg ICI on day 1, 4, 8, 11, 15. ECP-treated splenocytes were transplanted (107; i.v.) on days 6, 11 and 15, daily steroids were given (i.p.) from days 6-15. OT-I splenocytes (CD45.2) were activated on day 2 at a density of 2×10^6 cells/mL in the presence of 100 U/mL rmIL-2 (Peprotech) and 0.1 μg/mL OVA257-264 peptide (Sigma) in RPMI supplemented with 10% FCS, 1% P/S, 55 μM beta-Mercaptoethanol (Gibco) and 4 mM glutamine (Gibco). Splenocytes were washed on day 4 and replated with 100 U/mL rmIL-2 at 2×10^6 cells/mL. […]
For quantification of adiponectin concentrations in murine serum specimen, blood was harvested by retroorbital bleeding and serum was isolated by centrifugation. Adiponectin concentrations were measured using Adiponectin Mouse ELISA Kit (ThermoFisher) at 20,000-fold dilution.

B16.F10 melanoma [4] = test: B16.F10 intravenous/metastatic tumor model; type: in vivo, C57BL/6 mice; settings: added to anti-PD1, vs anti-PD1-therapy alone
Experimental: C57BL/6 mice were intravenously injected with 10 000 B16.F10luc/GFP melanoma cells in the tail vein and treated with 0.2 mg ICI or the respective isotype control on day 1, 4, 8, 16 and 22. ECP-treated splenocytes were transplanted (107; i.v.) on days 13, 18, and 22, and daily steroids were given (i.p.) from days 13-22. Survival of the mice was monitored until day 60.

[5] = system: BRAF^V600E-mutant 4434 melanoma; test: 4434 intravenous tumor model; type: in vivo, C57BL/6 mice; settings: added to anti-PD1, second melanoma model

## C[C@]12C=CC(=O)C=C1CC[C@@H]1[C@@H]2[C@@H](O)C[C@@]2(C)[C@H]1CC[C@]2(O)C(=O)CO [Steroids, Prednisolone]
[1]; d23
  colitis in melanoma-bearing mice: similarly reduced
[1]; luminescence imaging and melanoma transcripts in lungs
  tumor burden / control of tumor growth: higher tumor burden
B16.F10 melanoma [2]
  recall-immunity of transferred T-cells: this was not the case
[3]
  tumor-specific T-cells in the tumor microenvironment: reduction of adoptively-transferred OT-I T-cells and endogenous CD8^+OVA-Dextramer^+ T-cells
B16.F10 melanoma [4]
  survival: reduced survival
[5]
  survival: findings were reproduced
